Measurements: the supplement of paper PMC8882468

Assays:
Assay in all cases: CTG-3D luminescence at 96 h relative to day-0 seeding control (ratio to day 0); higher = more growth / less cytotoxicity; PDxO 3D drug screen (set 2), 96 h, CTG-3D normalised to day-0 seeding control.
[1] = tested on: HCI-002 (organoid from a triple-negative breast cancer xenograft)
[2] = tested on: HCI-019 (organoid from a triple-negative breast cancer xenograft)
[3] = tested on: HCI-023 (organoid from a triple-negative breast cancer xenograft)
[4] = tested on: HCI-024 (organoid from a breast cancer xenograft)
[5] = tested on: HCI-027 (organoid from a triple-negative breast cancer xenograft)

CC(=O)O[C@@]12CO[C@@H]1C[C@H](O)[C@@]1(C)C(=O)[C@H](O)C3=C(C)[C@@H](OC(=O)[C@H](O)[C@@H](NC(=O)OC(C)(C)C)c4ccccc4)C[C@@](O)([C@@H](OC(=O)c4ccccc4)[C@H]21)C3(C)C [docetaxel]
CTG-3D luminescence at 96 h
Conditions | 12.5 pM | 0.00025 µM | 0.005 µM | 0.1 µM | 1 µM | 10 µM | 100 µM | 625 fM
[1], days in culture: 127 | 0.447 | 0.957 | 0.452 | 0.428 | 0.356 | 0.422 | 0.298 | 0.543
[1], days in culture: 155 | 1.9 | 0.578 | 0.357 | 0.536 | 0.394 | 0.397 | 0.378 | 2.27
[1], days in culture: 168 | 3.45 | 3.13 | 0.43 | 0.281 | 0.324 | 0.319 | 0.115 | 4.39
[2], days in culture: 173 | 1.24 | 0.84 | 0.655 | 1.38 | 0.99 | 0.699 | 0.368 | 0.768
[2], days in culture: 194 | 1.66 | 2.03 | 0.858 | 0.59 | 0.552 | 0.764 | 0.27 | 3.06
[2], days in culture: 215 | 1.52 | 0.972 | 0.281 | 0.399 | 0.342 | 0.484 | 0.0546 | 1.59
[3], days in culture: 223 | 0.666 | 0.731 | 0.679 | 0.597 | 0.578 | 0.746 | 0.0587 | 0.745
[3], days in culture: 238 | 0.654 | 0.598 | 0.69 | 0.7 | 0.901 | 0.651 | 0.265 | 0.619
[3], days in culture: 252 | 1.03 | 0.858 | 0.757 | 1.04 | 0.812 | 1.27 | 0.603 | 1.14
[4], days in culture: 202 | 0.822 | 0.868 | 0.82 | 1.17 | 0.844 | 1.08 | 0.0987 | 0.654
[4], days in culture: 231 | 0.86 | 0.987 | 0.75 | 0.873 | 1.08 | 1.06 | 0.0745 | 1.06
[4], days in culture: 254 | 0.926 | 1.02 | 1.14 | 1.11 | 1.87 | 0.726 | 0.241 | 1.59
[5], days in culture: 145 | 1.01 | 0.93 | 0.832 | 0.862 | 0.922 | 0.849 | 0.15 | 1.06
[5], days in culture: 158 | 2.07 | 2.12 | 1.05 | 0.461 | 1.19 | 2.61 | 0.153 | 3.28
[5], days in culture: 164 | 2.42 | 1.32 | 0.405 | 0.525 | 0.555 | 0.505 | 0.117 | 1.04
[5], days in culture: 176 | 3.89 | 2.21 | 0.338 | 0.629 | 0.457 | 0.475 | 0.0832 | 2.73
[5], days in culture: 186 | 1.45 | 1.25 | 0.855 | 0.693 | 0.469 | 0.451 | 0.0466 | 2.08
